Source: patent US4202891A, “15-Oxygenated sterol compounds and the use of such compounds to inhibit the biosynthesis of sterols” (priority 1977, dated 1980)
pIC50: −log10 of the molar value.

What was measured:
HMG-CoA reductase = experiment: Reduction of the activity of HMG-CoA reductase in L cell cultures; type: cell-based, mouse; conditions: read-out: Concentrations Required for 50% Reduction of the Activity of HMG-CoA Reductase
Summary of the method: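 Mouse L cells (NCTC clone 929 fibroblast subline) grown in serum-free chemically defined medium were incubated 5 h with 15-oxygenated sterols, then harvested for microsomal HMG-CoA reductase activity. Value is the sterol concentration reducing reductase activity by 50%.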

plasma cholesterol = experiment: Plasma cholesterol concentration in mice, ketone in diet (Example 47); type: in vivo, mouse; conditions: 0.2% in diet; after eight days; 7-week-old mice
Experimental: Another dietary experiment with 5β-cholest-8(14)-en-3β-ol-15-one was performed using 7-week-old mice. Five mice were fed the ketone at a level of 0.2% in a diet which was essentially free of animal sterols for eight days. Five control pair-fed mice were fed the same diet to which the ketone was not added. The mean plasma cholesterol concentration in the ketone group after the eight day experiment was 35.8(±3.6, standard error of mean) mg per 100 ml of plasma while the corresponding value for the pair-fed group was 114.4 (±3.4, standard error of mean). It should be noted that very closely matched pairfeeding is difficult to perform in mice of this age due to the small amounts of food which are consumed and which must be accurately determined in such experiments.

CC(C)CCC[C@@H](C)[C@H]1CC(=O)C2=C3CC[C@H]4C[C@@H](O)CC[C@]4(C)[C@H]3CC[C@@]21C [5α-Cholest-8(14)-en-3β-ol-15-one, 5α-cholest-8(14)-en-3β-ol-15-one]
pIC50 (HMG-CoA reductase): 6.52 | mean plasma cholesterol concentration (standard error of mean) (plasma cholesterol): 35.8 mg per 100 ml of plasma
